Data on five compounds can be found in patent US7858820B2, “Solid compositions suitable for oral administration containing non-hygroscopic salts of L-carnitine and the alkanoyl L-carnitines with taurine chloride and glycine chloride” (Sigma-Tau Industrie Farmaceutiche Riunite S.p.A., priority 2001, dated 2010).

The structures appear in SMILES notation. Counter-ions that a name gives are not always drawn.

A short description of series [1]: Hygroscopicity of the solid salts. The conditions noted are these: for hygroscopicity of the starting material: remark in brackets on the reagent used. The series is classed as physicochemical.
For series [2] the following is noted: milieu with a high relative humidity content; U.S. Pat. No. 4,602,039; cited from earlier work.

Take `CCC(=O)O[C@H](CC(=O)O)C[N+](C)(C)C` [Example 2, Propionyl L-Carnitine Salt with Taurine Chloride]: the “hygroscopicity of the isolated solid” value in series [1] (white crystalline solid as obtained) is “non-hygroscopic”.

With `C[N+](C)(C)C[C@H](O)CC(=O)[O-].O=C(O)/C=C/C(=O)O` [L-carnitine fumarate], the “hygroscopicity of a prior-art salt” value in series [2] was “highly non-hygroscopic”.

`CC(=O)O[C@H](CC(=O)[O-])C[N+](C)(C)C` [acetyl L-carnitine inner salt]: the “hygroscopicity of the starting material” value in series [1] was “hygroscopic”.

With `NCC(=O)O` [glycine hydrochloride], the “hygroscopicity of the starting material” value in series [1] is given as “hygroscopic”.

Consider `CCC(=O)O[C@H](CC(=O)[O-])C[N+](C)(C)C` [propionyl L-carnitine inner salt], for which the “hygroscopicity of the starting material” value in series [1] was “hygroscopic”.
